Tests used:
Format in all cases: biochemical
[1] = target: T1, CDK7 (Homo sapiens, UniProt P50613); test: CDK7 enzyme inhibition test; conditions: Ki=IC50/(1+S/Km); 33P bound to MBP, [γ-33P]ATP, 30° C. for 20 minutes; read-out: Ki value of CDK7 inhibitory activity
T1 construct: purchased Carna Biosciences, Inc. 04-108
Outline: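 Recombinant CDK7 with MBP substrate and [γ-33P]ATP (500 μM solution, diluted into the mix) in HEPES pH 7.4/DTT/Triton X-100/MgCl2, 20 min at 30 °C. TCA-precipitated 33P-MBP counted by scintillation; IC50 from inhibition, Ki = IC50/(1+S/Km).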

[2] = target: T2, CDK2 (Homo sapiens, UniProt P24941); test: CDK2 enzyme inhibition test; conditions: Ki=IC50/(1+S/Km); 33P bound to MBP, [γ-33P]ATP, 30° C. for 20 minutes; read-out: Ki value of CDK2 inhibitory activity
T2 construct: purchased Invitrogen Corp. PV3267
Outline: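 Commercial CDK2 with MBP substrate and [γ-33P]ATP (500 μM solution, before mixing) in HEPES pH 7.4 buffer with DTT, Triton X-100 and MgCl2; 20 min at 30 °C. TCA-precipitated 33P-MBP counted by liquid scintillation; IC50 from inhibition of 33P incorporation, Ki = IC50/(1+S/Km).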

[3] = target: T3, PAK4 (Homo sapiens, UniProt O96013); test: PAK4 enzyme inhibition test; conditions: Ki=IC50/(1+S/Km); 33P bound to MBP, [γ-33P]ATP, 30° C. for 20 minutes; read-out: Ki value of PAK4 inhibitory activity
T3 construct: purchased Invitrogen Corp. PV4212
Outline: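 Radiometric assay: PAK4 with MBP substrate and 40 μM [γ-^33P]ATP solution in Tris pH 7.5 buffer with MgCl2, DTT, EGTA, reacted 20 min at 30 °C. TCA-precipitated, washed ^33P-MBP counted by scintillation. IC50 from inhibition of ^33P incorporation; Ki = IC50/(1+S/Km).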

T1 sequence (P50613 whole entry): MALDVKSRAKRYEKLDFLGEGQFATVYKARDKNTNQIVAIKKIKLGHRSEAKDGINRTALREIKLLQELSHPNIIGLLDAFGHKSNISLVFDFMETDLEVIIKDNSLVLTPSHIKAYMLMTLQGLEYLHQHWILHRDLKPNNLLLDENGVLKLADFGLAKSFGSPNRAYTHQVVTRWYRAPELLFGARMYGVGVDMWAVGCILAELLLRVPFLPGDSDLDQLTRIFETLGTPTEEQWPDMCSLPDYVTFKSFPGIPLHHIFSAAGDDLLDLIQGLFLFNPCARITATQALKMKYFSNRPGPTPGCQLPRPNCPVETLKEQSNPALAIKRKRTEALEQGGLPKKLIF
T1 sequence (P51946 whole entry partner): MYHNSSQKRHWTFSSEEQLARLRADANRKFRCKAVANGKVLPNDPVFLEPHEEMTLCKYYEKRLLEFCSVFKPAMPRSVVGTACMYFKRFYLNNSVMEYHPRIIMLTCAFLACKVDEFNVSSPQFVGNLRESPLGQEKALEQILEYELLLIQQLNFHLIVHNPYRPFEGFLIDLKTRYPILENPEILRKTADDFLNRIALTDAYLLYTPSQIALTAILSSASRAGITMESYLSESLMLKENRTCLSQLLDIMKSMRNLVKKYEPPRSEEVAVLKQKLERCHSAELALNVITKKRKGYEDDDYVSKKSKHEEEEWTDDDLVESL
T1 sequence (P51948 whole entry partner): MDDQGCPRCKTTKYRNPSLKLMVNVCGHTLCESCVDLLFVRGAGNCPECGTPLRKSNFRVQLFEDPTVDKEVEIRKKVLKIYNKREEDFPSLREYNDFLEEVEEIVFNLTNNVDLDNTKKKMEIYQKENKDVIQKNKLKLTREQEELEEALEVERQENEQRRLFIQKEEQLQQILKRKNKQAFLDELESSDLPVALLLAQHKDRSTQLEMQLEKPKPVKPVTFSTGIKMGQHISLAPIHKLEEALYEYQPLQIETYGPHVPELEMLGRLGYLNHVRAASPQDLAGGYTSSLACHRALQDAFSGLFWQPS
T3 sequence (O96013 whole entry): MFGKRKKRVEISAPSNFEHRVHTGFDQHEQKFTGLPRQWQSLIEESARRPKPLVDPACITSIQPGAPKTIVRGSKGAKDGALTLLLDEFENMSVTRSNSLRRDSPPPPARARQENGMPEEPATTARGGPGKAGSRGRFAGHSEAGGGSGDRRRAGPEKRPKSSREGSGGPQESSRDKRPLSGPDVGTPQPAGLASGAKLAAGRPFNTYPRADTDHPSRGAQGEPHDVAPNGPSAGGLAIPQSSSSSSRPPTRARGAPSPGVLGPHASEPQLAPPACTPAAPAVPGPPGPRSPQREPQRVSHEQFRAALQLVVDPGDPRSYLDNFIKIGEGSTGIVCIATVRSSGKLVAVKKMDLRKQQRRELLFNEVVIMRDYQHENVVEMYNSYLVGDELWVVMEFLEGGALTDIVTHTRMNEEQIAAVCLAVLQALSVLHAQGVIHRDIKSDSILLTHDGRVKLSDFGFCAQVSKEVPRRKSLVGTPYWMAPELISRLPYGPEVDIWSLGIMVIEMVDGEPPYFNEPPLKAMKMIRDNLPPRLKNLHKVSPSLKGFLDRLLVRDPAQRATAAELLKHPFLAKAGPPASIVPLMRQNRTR

| Ki [1] | Ki [2] | Ki [3] | Compound |
| --- | --- | --- | --- |
| ≤ 50 nM | ≥ 1000 nM | ≥ 500 nM | CC1(C)c2[nH]nc(NC(=O)C3([Si](C)(C)C)CCC3)c2CN1C(=O)N[C@H](CO)c1ccccc1 [IV-114, (S)—N-(2-Hydroxy-1-phenylethyl)-6,6-dimethyl-3-[1-(trimethylsilyl)cyclobutanecarboxamido]-4,6-dihydropyrrolo[3,4-c]pyrazole-5(1H)-carboxamide] |
| ≤ 50 nM | ≥ 1000 nM | ≥ 500 nM | CC[Si](C)(C)C1(C(=O)Nc2n[nH]c3c2CN(C(=O)N[C@H](CO)c2ccccc2)C3(C)C)CCC1 [IV-117, (S)-3-[1-(Ethyldimethylsilyl)cyclobutanecarboxamido]-N-(2-hydroxy-1-phenylethyl)-6,6-dimethyl-4,6-dihydropyrrolo[3,4-c]pyrazole-5(1H)-carboxamide] |
| ≤ 50 nM | ≥ 1000 nM | ≥ 500 nM | CN(C(=O)N1Cc2c(NC(=O)C3([Si](C)(C)C)CCC3)n[nH]c2C1(C)C)[C@H](CO)c1ccccc1 [IV-119, (S)—N-(2-Hydroxy-1-phenylethyl)-N,6,6-trimethyl-3-[1-(trimethylsilyl)cyclobutanecarboxamido]-4,6-dihydropyrrolo[3,4-c]pyrazole-5(1H)-carboxamide] |
| ≤ 50 nM | ≥ 1000 nM | ≥ 500 nM | COC[C@@H](NC(=O)N1Cc2c(NC(=O)C3([Si](C)(C)C)CCC3)n[nH]c2C1(C)C)c1ccccc1 [IV-123, (S)—N-(2-Methoxy-1-phenylethyl)-6,6-dimethyl-3-[1-(trimethylsilyl)cyclobutanecarboxamido]-4,6-dihydropyrrolo[3,4-c]pyrazole-5(1H)-carboxamide] |
| ≤ 50 nM | ≥ 1000 nM | ≥ 500 nM | CC(C)(O)[C@@H](NC(=O)N1Cc2c(NC(=O)C3([Si](C)(C)C)CCC3)n[nH]c2C1(C)C)c1ccccc1 [IV-171, (S)—N-(2-Hydroxy-2-methyl-1-phenylpropyl)-6,6-dimethyl-3-[1-(trimethylsilyl)cyclobutanecarboxamido]-4,6-dihydropyrrolo[3,4-c]pyrazole-5(1H)-carboxamide] |
| ≤ 50 nM | ≥ 1000 nM | ≥ 500 nM | CC1(C)c2[nH]nc(NC(=O)C3([Si](C)(C)C)CCC3)c2CN1C(=O)N[C@H](CCO)c1ccccc1 [IV-227, (R)—N-(3-Hydroxy-1-phenylpropyl)-6,6-dimethyl-3-[1-(trimethylsilyl)cyclobutanecarboxamido]-4,6-dihydropyrrolo[3,4-c]pyrazole-5(1H)-carboxamide] |
| ≤ 50 nM | ≥ 1000 nM | ≥ 500 nM | CC1(C)c2[nH]nc(NC(=O)C3([Si](C)(C)C)CCC3)c2CN1C(=O)N[C@H](CCCO)c1ccccc1 [IV-283, (R)—N-(4-Hydroxy-1-phenylbutyl)-6,6-dimethyl-3-[1-(trimethylsilyl)cyclobutanecarboxamido]-4,6-dihydropyrrolo[3,4-c]pyrazole-5(1H)-carboxamide] |
| ≤ 50 nM | ≥ 1000 nM | ≥ 500 nM | CC1(C)c2[nH]nc(NC(=O)C3([Si](C)(C)C)CCC3)c2CN1C(=O)N[C@H](CCCCO)c1ccccc1 [IV-291, (R)—N-(5-Hydroxy-1-phenylpentyl)-6,6-dimethyl-3-[1-(trimethylsilyl)cyclobutanecarboxamido]-4,6-dihydropyrrolo[3,4-c]pyrazole-5(1H)-carboxamide] |
| ≤ 50 nM | ≥ 1000 nM | ≥ 500 nM | CC(C)(O)C[C@@H](NC(=O)N1Cc2c(NC(=O)C3([Si](C)(C)C)CCC3)n[nH]c2C1(C)C)c1ccccc1 [IV-299, (R)—N-(3-Hydroxy-3-methyl-1-phenylbutyl)-6,6-dimethyl-3-[1-(trimethylsilyl)cyclobutanecarboxamido]-4,6-dihydropyrrolo[3,4-c]pyrazole-5(1H)-carboxamide] |
| ≤ 50 nM | ≥ 1000 nM | ≥ 500 nM | CC1(C)c2[nH]nc(NC(=O)C3([Si](C)(C)C)CCC3)c2CN1C(=O)NCCO [IV-438, N-(2-Hydroxyethyl)-6,6-dimethyl-3-[1-(trimethylsilyl)cyclobutanecarboxamido]-4,6-dihydropyrrolo[3,4-c]pyrazole-5(1H)-carboxamide] |
| ≤ 50 nM | ≥ 1000 nM | ≥ 500 nM | CC1(C)c2[nH]nc(NC(=O)C3([Si](C)(C)C)CCC3)c2CN1C(=O)NCC(O)c1ccccc1 (stereo not drawn) [IV-450, N-(2-Hydroxy-2-phenylethyl)-6,6-dimethyl-3-[1-(trimethylsilyl)cyclobutanecarboxamido]-4,6-dihydropyrrolo[3,4-c]pyrazole-5(1H)-carboxamide] |
| ≤ 50 nM | ≥ 1000 nM | ≥ 500 nM | C[C@@H](CO)NC(=O)N1Cc2c(NC(=O)C3([Si](C)(C)C)CCC3)n[nH]c2C1(C)C [IV-455, (S)—N-(1-Hydroxypropan-2-yl)-6,6-dimethyl-3-[1-(trimethylsilyl)cyclobutanecarboxamido]-4,6-dihydropyrrolo[3,4-c]pyrazole-5(1H)-carboxamide] |
| ≤ 50 nM | ≥ 1000 nM | ≥ 500 nM | CC(C)[C@@H](CO)NC(=O)N1Cc2c(NC(=O)C3([Si](C)(C)C)CCC3)n[nH]c2C1(C)C [IV-475, (S)—N-(1-Hydroxy-3-methylbutan-2-yl)-6,6-dimethyl-3-[1-(trimethylsilyl)cyclobutanecarboxamido]-4,6-dihydropyrrolo[3,4-c]pyrazole-5(1H)-carboxamide] |
| ≤ 50 nM | ≥ 1000 nM | ≥ 500 nM | CC1(C)c2[nH]nc(NC(=O)C3([Si](C)(C)C)CCC3)c2CN1C(=O)N[C@H](CO)C1CCCCC1 [IV-495, (S)—N-(1-Cyclohexyl-2-hydroxyethyl)-6,6-dimethyl-3-[1-(trimethylsilyl)cyclobutanecarboxamido]-4,6-dihydropyrrolo[3,4-c]pyrazole-5(1H)-carboxamide] |
| ≤ 50 nM | ≥ 1000 nM | ≥ 500 nM | CC1(C)c2[nH]nc(NC(=O)C3([Si](C)(C)C)CCC3)c2CN1C(=O)C(CO)c1ccccc1 (stereo not drawn) [IV-632, N-[5-(3-Hydroxy-2-phenylpropanoyl)-6,6-dimethyl-1,4,5,6-tetrahydropyrrolo[3,4-c]pyrazol-3-yl]-1-(trimethylsilyl)cyclobutanecarboxamide] |
| ≤ 50 nM | ≥ 1000 nM | ≥ 500 nM | CC(C)(O)C[C@@H](NC(=O)N1Cc2c(NC(=O)C3([Si](C)(C)C)CCC3)n[nH]c2C1(C)C)c1cccc(F)c1 [IV-911, (R)—N-[1-(3-Fluorophenyl)-3-hydroxy-3-methylbutyl]-6,6-dimethyl-3-[1-(trimethylsilyl)cyclobutanecarboxamido]-4,6-dihydropyrrolo[3,4-c]pyrazole-5(1H)-carboxamide] |
| ≤ 50 nM | ≥ 1000 nM | ≥ 500 nM | CC(C)O[C@@H](C(=O)N1Cc2c(NC(=O)C3([Si](C)(C)C)CCC3)n[nH]c2C1(C)C)c1ccccc1 [IV-1204, (R)—N-[5-(2-Isopropoxy-2-phenylacetyl)-6,6-dimethyl-1,4,5,6-tetrahydropyrrolo[3,4-c]pyrazol-3-yl]-1-(trimethylsilyl)cyclobutanecarboxamide] |

| Compound | Ki [1] | Ki [2] | Ki [3] |
| --- | --- | --- | --- |
| CC1(C)c2[nH]nc(NC(=O)C3([Si](C)(C)C)CCC3)c2CN1C(=O)N[C@H](CC1(O)CC1)c1ccccc1 [IV-743, (R)—N-[2-(1-Hydroxycyclopropyl)-1-phenylethyl]-6,6-dimethyl-3-[1-(trimethylsilyl)cyclobutanecarboxamido]-4,6-dihydropyrrolo[3,4-c]pyrazole-5(1H)-carboxamide] | ≤ 50 nM | ≥ 1000 nM | ≥ 500 nM |

— patent US10131679B2, “Substituted dihydropyrrolopyrazole compound” (UBE INDUSTRIES, LTD., priority 2014, dated 2018)
